Tests used:
QS11 + Vorinostat = compound: C1CC2=C(C1)C=C(C=C2)OC3=NC(=C4C(=N3)N(C=N4)CC5=CC=C(C=C5)C6=CC=CC=C6)N[C@@H](CC7=CC=CC=C7)CO [QS11] + O=C(CCCCCCC(=O)Nc1ccccc1)NO [Vorinostat] (partner 1 µM); assay: relative viability (nuclei count vs DMSO), 5 days (fraction); higher = more cells survive
Method in brief: (§1)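 Cells from lung cancer lines were seeded into 1536-well plates and, one day later, dosed by pin tool. Treatments were either a single drug or a fixed dose of an anchor drug with five library-drug doses (not always all listed) in √10 steps. After 5 days, nuclei were stained in a one-step fixation (final 0.05% Triton X-100, 1% formaldehyde, 1 ug/ml Hoechst) and counted on 4× images, and relative viability is the treated-to-vehicle nuclei ratio, as the median of duplicate plates.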

AZ628 + Vorinostat = compound: CC1=C(C=C(C=C1)NC(=O)C2=CC(=CC=C2)C(C)(C)C#N)NC3=CC4=C(C=C3)N=CN(C4=O)C [AZ628] + O=C(CCCCCCC(=O)Nc1ccccc1)NO [Vorinostat] (partner 1 µM); assay: as above
Method in brief: as §1

Cell Line | relative viability (QS11 + Vorinostat; first compound 0.08 µM) | relative viability (QS11 + Vorinostat; first compound 0.253 µM) | relative viability (QS11 + Vorinostat; first compound 2.53 µM) | relative viability (QS11 + Vorinostat; first compound 8 µM) | relative viability (AZ628 + Vorinostat; first compound 0.08 µM) | relative viability (AZ628 + Vorinostat; first compound 0.253 µM) | relative viability (AZ628 + Vorinostat; first compound 0.8 µM) | relative viability (AZ628 + Vorinostat; first compound 2.53 µM) | relative viability (AZ628 + Vorinostat; first compound 8 µM) | relative viability (QS11 + Vorinostat; first compound 0.8 µM)
NCI-H1915 | 0.522 | 0.528 | 0.467 | 0.391 | 0.549 | 0.606 | 0.537 | 0.461 | 0.462 | –
NCI-H1355 | 0.732 | 0.62 | 0.597 | 0.554 | 0.69 | 0.623 | 0.581 | 0.598 | 0.418 | 0.529
HCC-15 | 0.861 | 0.944 | 0.84 | 0.648 | 0.867 | 0.728 | 0.693 | 0.61 | 0.348 | 0.651
HCC-78 | 0.4 | 0.48 | 0.46 | 0.444 | 0.523 | 0.439 | 0.465 | 0.565 | 0.457 | 0.518
NCI-H23 | 0.542 | 0.6 | 0.544 | 0.491 | 0.709 | 0.555 | 0.524 | 0.404 | 0.333 | 0.564
NCI-H838 | 0.735 | 0.642 | 0.774 | 0.755 | 0.753 | 0.72 | 0.677 | 0.722 | 0.718 | 0.666
NCI-H1793 | 0.734 | 0.528 | 0.88 | 0.702 | 0.969 | 0.632 | 0.835 | 0.602 | 0.484 | 0.808
COR-L23 | 0.397 | 0.334 | 0.301 | 0.282 | 0.528 | 0.426 | 0.491 | 0.473 | 0.321 | 0.469
ChaGo-K-1 | – | 0.799 | 0.767 | 0.745 | 0.773 | 0.75 | 0.753 | 0.754 | 0.743 | 0.935
LCLC-103H | 0.724 | 0.783 | 0.799 | 0.734 | 0.727 | 0.804 | 0.776 | 0.712 | 0.728 | –
ABC-1 | 0.886 | 0.834 | 0.931 | 1.11 | 1.26 | 0.789 | 1.27 | 0.955 | 1.07 | 1.02
SW 1573 | 0.912 | 0.629 | 0.296 | 0.253 | 1.01 | 0.641 | 0.592 | 0.575 | 0.508 | 0.52
HARA | 0.498 | 0.565 | 0.506 | 0.431 | 0.706 | 0.453 | 0.405 | 0.399 | 0.183 | –
NCI-H1755 | 0.748 | 0.714 | 0.515 | 0.655 | 0.78 | 0.779 | 0.84 | 0.755 | 0.679 | 0.605
NCI-H460 | 0.938 | 0.811 | 0.687 | 0.212 | 0.728 | 0.715 | 0.644 | 0.641 | 0.24 | 0.541
NCI-H2170 | 0.819 | 0.85 | 0.796 | 1.07 | 0.804 | 0.833 | 0.786 | 0.837 | 0.905 | 0.664
NCI-H3122 | 1 | 1.21 | 1.03 | 0.584 | 0.932 | 0.921 | 0.737 | 0.768 | 0.496 | –

Cell Line | relative viability (QS11 + Vorinostat; first compound 0.08 µM) | relative viability (QS11 + Vorinostat; first compound 0.253 µM) | relative viability (QS11 + Vorinostat; first compound 2.53 µM) | relative viability (QS11 + Vorinostat; first compound 8 µM) | relative viability (AZ628 + Vorinostat; first compound 0.08 µM) | relative viability (AZ628 + Vorinostat; first compound 0.253 µM) | relative viability (AZ628 + Vorinostat; first compound 0.8 µM) | relative viability (AZ628 + Vorinostat; first compound 2.53 µM) | relative viability (AZ628 + Vorinostat; first compound 8 µM) | relative viability (QS11 + Vorinostat; first compound 0.8 µM)
COR-L 105 | 0.838 | 1.03 | 0.794 | 0.716 | 0.881 | 0.886 | 0.796 | 0.794 | 0.654 | 0.665
NCI-H2087 | 1.03 | 0.667 | 0.625 | 0.665 | 1.02 | 0.723 | 0.743 | 0.527 | 0.148 | 0.599
HCC-366 | 0.353 | 0.283 | 0.152 | 0.161 | 0.404 | 0.39 | 0.399 | 0.255 | 0.396 | –
NCI-H2347 | 0.596 | 0.579 | 0.662 | 0.56 | 0.46 | 0.642 | 0.447 | 0.439 | 0.335 | 0.541
201T | 0.937 | 0.995 | 0.866 | 0.668 | 1.06 | 1.02 | 1.08 | 1.04 | 1.08 | 0.797
NCI-H358 | 0.64 | 0.602 | 0.65 | 0.49 | 0.762 | 0.424 | 0.386 | 0.336 | 0.262 | 0.782
NCI-H1993 | 0.972 | 0.629 | 0.983 | 0.498 | 0.751 | 0.774 | 0.812 | 0.62 | 0.547 | 0.776
NCI-H2009 | 0.757 | 0.699 | 0.707 | 0.603 | 0.595 | 0.783 | 0.568 | 0.612 | 0.405 | 0.635
EMC-BAC-2 | 0.492 | 0.434 | 0.334 | 0.325 | 0.878 | 0.57 | 0.642 | 0.562 | 0.449 | 0.385
NCI-H2023 | 0.417 | 0.655 | 0.759 | 0.318 | 0.825 | 0.61 | 0.542 | 0.636 | 0.405 | 0.527
RERF-LC-KJ | 0.643 | 0.628 | 0.664 | 0.566 | 0.779 | 0.735 | 0.741 | 0.677 | 0.656 | 0.523
H3255 | 0.763 | 0.947 | 0.758 | 0.861 | 0.838 | 0.781 | 0.846 | 0.87 | 0.824 | –
HCC-827 | 0.749 | 0.927 | 0.944 | 0.899 | 0.963 | 0.795 | 0.906 | 0.921 | 0.552 | 0.672
LXF-289 | 0.772 | 0.828 | 0.719 | 0.637 | 0.817 | 0.755 | 0.701 | 0.71 | 0.473 | 0.724
NCI-H727 | 1.28 | 1.16 | 1.07 | 1.37 | 1.25 | – | – | 0.891 | 0.352 | 1.29
NCI-H322M | 0.858 | 0.997 | 1.16 | 1.41 | 1.03 | 0.856 | 0.989 | 0.937 | 0.816 | 1.05
NCI-H2126 | 0.801 | 0.777 | 0.732 | 0.661 | 0.862 | 0.786 | 0.642 | 0.729 | 0.703 | 0.717

Source: the supplement of paper PMC10307832
